Test: Repeated water uptake study with solvent-free SPM (dichloromethane preparation)
Format: physicochemical
Conditions: for sample weight / change in starting weight / Percent change based on average of final two weights: monohydrate
Excerpt: Study of weight change under controlled humidity conditions, samples were placed in open vials, which were placed in closed controlled-humidity jars. Relative humidities were controlled using saturated aqueous salt solutions: 58% RH, NaBr; 75% RH, (NH4)2 SO4; 76%, sodium acetate; 84% RH, KBr.
A possible cause of the observed weight loss is that some reaction solvent (toluene in this case) from the preparation of SPM remained on the solid and evaporated in the humidity jars. To test this theory, it was decided to prepare SPM, show it to be solvent-free, and repeat the water uptake studies. Dichloromethane was chosen as the organic solvent for the preparation rather than toluene because its lower boiling point should allow it to be removed from the solid more easily and completely. SPM was made by stirring a slurry of SPA and one equivalent of water in dichloromethane for 2 days, then isolation by filtration and air-drying of the solid SPM.
The remainder of the SPM sample was allowed to dry in an open jar under ambient conditions for about 1 week. It was then characterized by XRPD elemental analysis, and Karl Fischer (KF) analysis. The sample appears to be pure SPM containing very little, if any, residual solvent.
Both SPM and SPA increased in weight about 20% when equilibrium was reached (constant weight) at each humidity utilized. The samples were analyzed by XRPD after completion of the water uptake experiments. […] The nature of this form has not been determined.

O=C1NC(=O)C(c2ccccc2)(c2ccccc2)N1 [SPM, sodium phenytoin monohydrate]
sample weight (75% RH, day 5): 1.7218 g
change in starting weight (75% RH, day 6): +0.2552 g
sample weight (75% RH, day 6): 1.7565 g
change in starting weight (75% RH, day 7): +0.2874 g
sample weight (75% RH, day 7): 1.7887 g
change in starting weight (75% RH, day 8): +0.2752 g
sample weight (75% RH, day 8): 1.7765 g
change in starting weight (75% RH, day 10): +0.2725 g
sample weight (75% RH, day 10): 1.7738 g
change in starting weight (75% RH, day 11): +0.2768 g
sample weight (75% RH, day 11): 1.7781 g
change in starting weight (75% RH, day 12): +0.1796 g
sample weight (75% RH, day 12): 1.7809 g
change in starting weight (75% RH, day 13): +0.2678 g
sample weight (75% RH, day 13): 1.7781 g
change in starting weight (75% RH, day 14): +0.2755 g
sample weight (75% RH, day 14): 1.7768 g
change in starting weight (75% RH, day 15): +0.2755 g
sample weight (75% RH, day 15): 1.7768 g
change in starting weight (75% RH, day 16): +0.2761 g
sample weight (75% RH, day 16): 1.7774 g
change in starting weight (75% RH, day 17): +0.2741 g
sample weight (75% RH, day 17): 1.7754 g
Percent change based on average of final two weights (75% RH): +18%
sample weight (84% RH, day 0 (starting weight)): 1.5068 g
change in starting weight (84% RH, day 1): +0.0595 g
sample weight (84% RH, day 1): 1.5663 g
change in starting weight (84% RH, day 2): +0.1159 g
sample weight (84% RH, day 2): 1.6227 g
change in starting weight (84% RH, day 3): +0.1762 g
sample weight (84% RH, day 3): 1.6830 g
change in starting weight (84% RH, day 4): +0.2309 g
sample weight (84% RH, day 4): 1.7377 g
change in starting weight (84% RH, day 5): +0.2801 g
sample weight (84% RH, day 5): 1.7869 g
change in starting weight (84% RH, day 6): +0.2965 g
sample weight (84% RH, day 6): 1.8033 g
change in starting weight (84% RH, day 7): +0.2910 g
sample weight (84% RH, day 7): 1.7978 g
change in starting weight (84% RH, day 8): +0.2932 g
sample weight (84% RH, day 8): 1.8000 g
change in starting weight (84% RH, day 10): +0.2997 g
sample weight (84% RH, day 10): 1.8065 g
change in starting weight (84% RH, day 11): +0.3062 g
sample weight (84% RH, day 11): 1.8130 g
change in starting weight (84% RH, day 12): +0.3099 g
sample weight (84% RH, day 12): 1.8167 g
change in starting weight (84% RH, day 13): +0.3090 g
sample weight (84% RH, day 13): 1.8158 g
change in starting weight (84% RH, day 14): +0.3055 g
sample weight (84% RH, day 14): 1.8123 g
change in starting weight (84% RH, day 15): +0.2996 g
sample weight (84% RH, day 15): 1.8064 g
change in starting weight (84% RH, day 16): +0.2961 g
sample weight (84% RH, day 16): 1.8029 g
change in starting weight (84% RH, day 17): +0.2916 g
sample weight (84% RH, day 17): 1.7984 g
Percent change based on average of final two weights (84% RH): +20%
crystal form after completion of water uptake experiments (XRPD) (each humidity utilized): another hydrated crystal form was produced
increase in weight at equilibrium (constant weight) (each humidity utilized): about 20%
